Some test systems named below: BT-549 breast; HOP-62 NSCLC; HS 578T breast; MDA-MB-231 breast; SF-268 CNS; SNB-19 CNS; TK-10 renal; UACC-257 melanoma.
Assay in all cases: inhibition of tumour cell growth, NCI panel, 48 h

Where “and” joins values, the source holds several entries; their conditions need not be identical. Equal values may be shown once.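 48-hour exposure; five concentrations; linearly interpolated endpoints. Here, GI50 denotes the concentration required for 50% inhibition of growth. TGI marks complete inhibition of growth.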

As to `COc1ccc(Nc2cc(C)nc(N3CCN(c4ccnc5cc(Cl)ccc45)CC3)n2)cc1`, the GI50 in the experiment with BT-549 breast is 2.22 µM; with HOP-62 NSCLC, 3.89 µM; with HS 578T breast it was 4.04 µM; in the experiment on MDA-MB-231 breast it was 2.31 µM; in the experiment with SF-268 CNS it was 4.7 µM; in the experiment on SNB-19 CNS, 4.83 µM. Also, the GI50 in the experiment with TK-10 renal is 3.64 µM; in the experiment with UACC-257 melanoma it was 3.34 µM. Also, the TGI in the experiment on BT-549 breast is 8.06 µM; in the experiment on HOP-62 NSCLC it was above 100 µM; in the experiment with HS 578T breast, above 100 µM; in the experiment with MDA-MB-231 breast it was above 100 µM; with SF-268 CNS, above 100 µM; in the experiment with SNB-19 CNS, above 100 µM. For the same compound, the TGI in the experiment with TK-10 renal was 47.6 µM; in the experiment on UACC-257 melanoma, above 100 µM.
Take `O=C1C=CC(O)C2C1CC13SSC4(CC5C(=O)C=CC(O)C5N4C1=O)C(=O)N23` (stereo unspecified): the TGI with BT-549 breast is 3.65 µM; with HOP-62 NSCLC it was 1.15 µM; in the experiment with HS 578T breast, 2.26 µM; in the experiment on MDA-MB-231 breast it was 0.947 µM; in the experiment on SF-268 CNS, 5.85 µM; in the experiment with SNB-19 CNS it was 5.19 µM. Further, the results for the TGI with TK-10 renal and in the experiment on UACC-257 melanoma were 1.81 µM and 0.768 µM, respectively.
As for `COc1ccc2nc(NC(=O)c3cccnc3Nc3cc(OC)c(OC)c(OC)c3)sc2c1`, the GI50 with BT-549 breast was 11.6 µM; with HOP-62 NSCLC, 6.33 µM; with HS 578T breast it was 5.77 µM; in the experiment with MDA-MB-231 breast, 5.62 µM; in the experiment on SF-268 CNS it was 4.43 µM; with SNB-19 CNS it was 15 µM. Also, the figures for the GI50 in the experiment on TK-10 renal and in the experiment on UACC-257 melanoma were 4.31 µM and 14.6 µM, respectively. The TGI in the experiment on BT-549 breast came to 28.2 µM; in the experiment on HOP-62 NSCLC, 22.3 µM; with HS 578T breast, 30.9 µM; in the experiment with MDA-MB-231 breast, 21.7 µM; in the experiment with SF-268 CNS it was 18.9 µM; in the experiment with SNB-19 CNS it was 31.7 µM. For the same compound, the TGI in the experiment on TK-10 renal turned out to be 14.1 µM; with UACC-257 melanoma it was 29.6 µM.
`O=[N+]([O-])c1ccc(S(=O)(=O)Cc2ccccc2)c2nonc12`: the TGI was 33.1 µM with BT-549 breast; 43.1 µM in the experiment with HOP-62 NSCLC; 58.5 µM in the experiment with HS 578T breast; 50.7 µM in the experiment with MDA-MB-231 breast; 39.3 µM with SF-268 CNS; above 100 µM in the experiment on SNB-19 CNS. Further, the values for the TGI with TK-10 renal and in the experiment on UACC-257 melanoma were 32 µM and 30.1 µM, respectively.
Take `O=C1OC(c2ccccc2)=N/C1=C\c1cccc(F)c1`: the TGI with BT-549 breast is above 100 µM; with HOP-62 NSCLC, 92.6 µM; in the experiment on HS 578T breast it was above 100 µM; with MDA-MB-231 breast it was above 100 µM; with SF-268 CNS, above 100 µM; in the experiment on SNB-19 CNS, above 100 µM. The figures for the TGI in the experiment on TK-10 renal and in the experiment with UACC-257 melanoma were above 100 µM and 88.2 µM, respectively.
For `COc1ccc(OC)c(Nc2nc(-c3c(C)nc4sccn34)cs2)c1`, the GI50 is 11 µM with BT-549 breast; 8.46 µM with HOP-62 NSCLC; 5.3 µM in the experiment with HS 578T breast; above 100 µM with MDA-MB-231 breast; 29.7 µM in the experiment on SF-268 CNS; 41.4 µM in the experiment on SNB-19 CNS. In addition, the figures for the GI50 with TK-10 renal and with UACC-257 melanoma were 87.5 µM and above 100 µM, respectively. Further, the TGI in the experiment on BT-549 breast is above 100 µM; in the experiment with HOP-62 NSCLC, 63.4 µM; in the experiment with HS 578T breast, above 100 µM; in the experiment with MDA-MB-231 breast, above 100 µM; in the experiment with SF-268 CNS it was above 100 µM; in the experiment with SNB-19 CNS it was above 100 µM. Further, the TGI in the experiment with TK-10 renal and with UACC-257 melanoma was above 100 µM in each case.
As to `OCCN1CCN(CC/C=C2\c3ccccc3Sc3ccc(Cl)cc32)CC1`, the GI50 with BT-549 breast is 7.89 µM; in the experiment on HOP-62 NSCLC it was 4.07 µM and 2.62 µM; in the experiment with HS 578T breast it was 2.43 µM and 2.25 µM; in the experiment on MDA-MB-231 breast it was 2.62 µM and 2.09 µM; with SF-268 CNS it was 2.58 µM and 4.5 µM; in the experiment on SNB-19 CNS it was 2.45 µM and 4.49 µM. Further, the GI50 is 4.59 µM and 2.07 µM in the experiment on TK-10 renal; 1.97 µM and 1.71 µM with UACC-257 melanoma. Further, the TGI in the experiment on BT-549 breast is 22.4 µM; with HOP-62 NSCLC, 14.5 µM and 7.04 µM; with HS 578T breast, 7.02 µM and 7.94 µM; with MDA-MB-231 breast it was 12 µM and 6.46 µM; in the experiment with SF-268 CNS, 10.9 µM and 15.1 µM; with SNB-19 CNS, 6.43 µM and 10.4 µM. Besides, the TGI in the experiment on TK-10 renal is 19.4 µM and 5.62 µM; in the experiment with UACC-257 melanoma it was 4.18 µM and 3.17 µM.
`CCc1nc(N)nc(N)c1-c1ccc(Cl)c(N=CN(C)C)c1`: the TGI was above 100 µM in the experiment on BT-549 breast; above 100 µM in the experiment on HOP-62 NSCLC; above 100 µM in the experiment with HS 578T breast; above 100 µM in the experiment with MDA-MB-231 breast; above 100 µM in the experiment on SF-268 CNS; above 89.3 µM in the experiment with SNB-19 CNS. In addition, the TGI in the experiment on TK-10 renal and with UACC-257 melanoma was above 100 µM in each case.
Consider `Cc1cc(OCc2nnc3n2N=C(c2ccc(Cl)cc2Cl)CS3)ccc1Cl`, for which the GI50 in the experiment with BT-549 breast is 25.9 µM; with HOP-62 NSCLC, above 100 µM; in the experiment on HS 578T breast, 37.9 µM; with MDA-MB-231 breast, 30.8 µM; with SF-268 CNS, 73.4 µM; with SNB-19 CNS, 97.2 µM. Besides, the GI50 is 32 µM with TK-10 renal and 42.1 µM with UACC-257 melanoma. The TGI in the experiment on BT-549 breast is above 100 µM; in the experiment with HOP-62 NSCLC, above 100 µM; in the experiment with HS 578T breast, above 100 µM; in the experiment with MDA-MB-231 breast, 90.4 µM; in the experiment on SF-268 CNS it was above 100 µM; with SNB-19 CNS, above 100 µM. The TGI in the experiment with TK-10 renal is above 100 µM; in the experiment with UACC-257 melanoma, 93.2 µM.
As for `Cn1cnc([N+](=O)[O-])c1Sc1ncn[nH]1`, the GI50 in the experiment with BT-549 breast was above 100 µM; in the experiment on HOP-62 NSCLC it was above 100 µM; in the experiment on HS 578T breast it was 52.8 µM; in the experiment with MDA-MB-231 breast, above 100 µM; in the experiment with SF-268 CNS, above 100 µM; with SNB-19 CNS, above 100 µM. Further, the results for the GI50 with TK-10 renal and with UACC-257 melanoma were 98.2 µM and 68.2 µM, respectively. The TGI in the experiment with BT-549 breast, in the experiment with HOP-62 NSCLC, with HS 578T breast, in the experiment on MDA-MB-231 breast, with SF-268 CNS and in the experiment on SNB-19 CNS was above 100 µM in each case. In addition, the TGI with TK-10 renal and in the experiment with UACC-257 melanoma was above 100 µM throughout.
As for `O=C1OC(CN2CCOCC2)CN1/N=C/c1ccc([N+](=O)[O-])o1` (stereo unspecified), the TGI in the experiment on BT-549 breast, in the experiment with HOP-62 NSCLC, in the experiment with HS 578T breast, in the experiment on MDA-MB-231 breast, with SF-268 CNS and in the experiment on SNB-19 CNS was above 100 µM each time. Besides, the TGI with TK-10 renal and in the experiment on UACC-257 melanoma was above 100 µM in each case.

(Values after PubChem BioAssay (NCI).)
